Measurements from patent US11612661B2 (priority 2019, dated 2023).
Bridge positions count the residues as written; N and C are the ends. Square brackets hold non-standard residues; d marks the D form. Triazole bridges read from a SMILES are 1,4-linked. Peptide text beside a SMILES is read from it. * marks the point of attachment. Orn(N3) = [N-]=[N+]=NCCC[C@H](N)C(=O)O; NMeY = CN[C@@H](Cc1ccc(O)cc1)C(=O)O; X1 = O=C(O)C[C@@H](N*)c1ccc(O)cc1; Cit = NC(=O)NCCC[C@H](N)C(=O)O; Pra = C#CC[C@H](N)C(=O)O; Sar = CNCC(=O)O

Legend:
human α9α10 nAChR = human α9α10 nAChR (Homo sapiens, UniProt Q9GZZ6+Q9UGM1); assay: cell-based; format: cell-based
rat α9α10 nAChR = rat α9α10 nAChR (Rattus norvegicus, UniProt P43144+Q9JLB5); assay: cell-based; format: cell-based; conditions: for IC50: α9α10 nAChR IC50 (nM) Rat
Chain of rat α9α10 nAChR (P43144 26-479 limits assumed): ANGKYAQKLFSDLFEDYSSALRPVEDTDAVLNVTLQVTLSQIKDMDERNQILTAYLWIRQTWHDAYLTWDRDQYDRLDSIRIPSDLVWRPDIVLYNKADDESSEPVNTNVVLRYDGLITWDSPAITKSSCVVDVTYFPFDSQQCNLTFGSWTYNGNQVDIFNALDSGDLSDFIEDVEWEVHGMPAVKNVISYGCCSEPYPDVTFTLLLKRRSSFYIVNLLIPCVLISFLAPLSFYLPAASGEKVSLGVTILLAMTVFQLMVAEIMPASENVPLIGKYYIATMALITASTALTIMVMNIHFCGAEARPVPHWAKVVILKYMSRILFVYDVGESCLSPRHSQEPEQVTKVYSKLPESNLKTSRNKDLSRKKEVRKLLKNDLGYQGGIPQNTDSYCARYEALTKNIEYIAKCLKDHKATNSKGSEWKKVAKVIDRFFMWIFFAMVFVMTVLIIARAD
Chain of rat α9α10 nAChR (Q9JLB5 25-447 limits assumed): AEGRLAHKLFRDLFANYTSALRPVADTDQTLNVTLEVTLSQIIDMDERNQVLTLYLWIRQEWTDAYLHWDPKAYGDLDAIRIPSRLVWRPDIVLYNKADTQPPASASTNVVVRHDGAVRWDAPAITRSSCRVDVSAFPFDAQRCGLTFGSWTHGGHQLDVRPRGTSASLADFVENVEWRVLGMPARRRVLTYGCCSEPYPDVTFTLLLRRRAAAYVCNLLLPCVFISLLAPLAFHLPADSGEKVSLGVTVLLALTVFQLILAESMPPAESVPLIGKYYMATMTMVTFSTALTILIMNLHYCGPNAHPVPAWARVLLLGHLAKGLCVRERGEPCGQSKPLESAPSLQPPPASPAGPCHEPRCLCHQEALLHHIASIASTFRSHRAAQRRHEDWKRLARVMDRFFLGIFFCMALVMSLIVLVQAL

Chain of human α9α10 nAChR (Q9UGM1 26-479 limits assumed): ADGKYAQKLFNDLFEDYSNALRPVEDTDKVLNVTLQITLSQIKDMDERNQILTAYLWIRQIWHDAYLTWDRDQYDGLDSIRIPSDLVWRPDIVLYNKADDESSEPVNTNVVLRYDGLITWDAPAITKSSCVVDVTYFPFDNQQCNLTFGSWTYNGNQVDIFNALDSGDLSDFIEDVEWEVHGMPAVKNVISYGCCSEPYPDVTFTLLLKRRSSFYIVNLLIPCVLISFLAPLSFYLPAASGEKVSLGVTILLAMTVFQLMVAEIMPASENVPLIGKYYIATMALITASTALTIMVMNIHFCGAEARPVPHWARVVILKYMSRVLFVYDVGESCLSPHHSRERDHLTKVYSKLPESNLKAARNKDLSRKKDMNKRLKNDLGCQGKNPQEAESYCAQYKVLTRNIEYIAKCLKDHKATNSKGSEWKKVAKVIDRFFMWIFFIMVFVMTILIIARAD
Chain of human α9α10 nAChR (Q9GZZ6 25-450 limits assumed): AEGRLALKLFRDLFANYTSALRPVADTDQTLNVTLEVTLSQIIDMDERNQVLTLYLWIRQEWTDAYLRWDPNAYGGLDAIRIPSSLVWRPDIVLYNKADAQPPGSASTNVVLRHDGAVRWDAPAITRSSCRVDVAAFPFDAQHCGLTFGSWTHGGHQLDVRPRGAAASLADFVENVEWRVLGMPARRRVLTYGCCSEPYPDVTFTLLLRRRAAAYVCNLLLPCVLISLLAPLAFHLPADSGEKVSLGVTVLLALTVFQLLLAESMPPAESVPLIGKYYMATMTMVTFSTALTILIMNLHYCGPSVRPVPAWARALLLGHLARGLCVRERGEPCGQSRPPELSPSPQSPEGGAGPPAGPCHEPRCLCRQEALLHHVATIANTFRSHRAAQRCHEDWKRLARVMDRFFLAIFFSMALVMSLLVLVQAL

SMILES	IC50 (human α9α10 nAChR) [nM]	IC50 (rat α9α10 nAChR) [nM]	Loss of activity on the human channel on deletion of amino acid 13 (1a vs 1q) (human α9α10 nAChR)	Loss in activity on the rat channel on deletion of amino acid 13 (1a vs 1q) (rat α9α10 nAChR)
C[C@@H](O)[C@@H]1NC(=O)[C@@H]2CCCc3cn(nn3)C[C@@H](C(=O)N[C@@H](Cc3ccc(O)cc3)C(=O)O)NC(=O)[C@H](CCC(N)=O)NC(=O)[C@H](Cc3c[nH]c4ccccc34)NC(=O)[C@H](CCCNC(N)=O)NC(=O)[C@H](CSSC[C@H](NC(=O)CN)C(=O)N2)NC(=O)[C@H](CCCNC(=N)N)NC(=O)[C@@H]2CCCN2C(=O)[C@H](CC(=O)O)NC1=O [Ij, L-tyrosine, glycyl-L-cysteinyl-(2S)-2-aminopentanoyl-L-alanyl-L-threonyl-L-α-aspartyl-L-prolyl-L-arginyl-L-cysteinyl-N5-(aminocarbonyl)-L-ornithyl-L-3-iodotyrosyl-L-glutaminyl-L-alanyl-cyclic (2→8)-disulfide-cyclic 3^5,12^3-(1H-1,2,3-triazole-4,1-diyl)]	152 ± 71	69 ± 8.5		
C[C@@H](O)[C@@H]1NC(=O)[C@@H]2Cn3cc(nn3)CCC[C@@H](C(=O)N[C@@H](Cc3ccc(O)cc3)C(=O)O)NC(=O)[C@H](CCC(N)=O)NC(=O)[C@H](Cc3c[nH]c4ccccc34)NC(=O)[C@H](CCCNC(N)=O)NC(=O)[C@H](CSSC[C@H](NC(=O)CN)C(=O)N2)NC(=O)[C@H](CCCNC(=N)N)NC(=O)[C@@H]2CCCN2C(=O)[C@H](CC(=O)O)NC1=O [Ik, L-tyrosine, glycyl-L-cysteinyl-L-alanyl-L-threonyl-L-α-aspartyl-L-prolyl-L-arginyl-L-cysteinyl-N5-(aminocarbonyl)-L-ornithyl-L-tryptophyl-L-glutaminyl-L-(2S)-2-aminopentanoyl-cyclic (2→8)-disulfide-cyclic 3^3,12^5-(1H-1,2,3-triazole-1,4-diyl)]	16.6 ± 1.1	9.5 ± 1.3		
C[C@@H](O)[C@@H]1NC(=O)[C@@H]2Cc3cn(nn3)CCC[C@@H](C(=O)N[C@@H](Cc3ccc(O)cc3)C(=O)N(C)CC(=O)O)NC(=O)[C@H](CCC(N)=O)NC(=O)[C@H](Cc3c[nH]c4ccccc34)NC(=O)[C@H](CCCNC(N)=O)NC(=O)[C@H](CSSC[C@H](NC(=O)CN)C(=O)N2)NC(=O)[C@H](CCCNC(=N)N)NC(=O)[C@@H]2CCCN2C(=O)[C@H](CC(=O)O)NC1=O [In, glycine, glycyl-L-cysteinyl-L-alanyl-L-threonyl-L-α-aspartyl-L-prolyl-L-arginyl-L-cysteinyl-N5-(aminocarbonyl)-L-ornithyl-L-tryptophyl-L-glutaminyl-L-norvalyl-L-tyrosyl-N-methyl-cyclic (2→8)-disulfide-cyclic 3^3,12^5-(1H-1,2,3-triazole-4,1-diyl)] (H-GC[Pra]TDPRC[Cit]WQ[Orn(N3)]Y[Sar]-OH; disulfide 2-8; triazole 3-12)	37 ± 15	≤ 10		
C[C@@H](O)[C@@H]1NC(=O)[C@@H]2Cc3cn(nn3)CCC[C@@H](C(=O)N[C@@H](Cc3ccc(O)cc3)C(=O)N[C@H](Cc3ccc(O)cc3)C(=O)O)NC(=O)[C@H](CCC(N)=O)NC(=O)[C@H](Cc3c[nH]c4ccccc34)NC(=O)[C@H](CCCNC(N)=O)NC(=O)[C@H](CSSC[C@H](NC(=O)CN)C(=O)N2)NC(=O)[C@H](CCCNC(=N)N)NC(=O)[C@@H]2CCCN2C(=O)[C@H](CC(=O)O)NC1=O [Io, D-tyrosine, glycyl-L-cysteinyl-L-alanyl-L-threonyl-L-α-aspartyl-L-prolyl-L-arginyl-L-cysteinyl-N5-(aminocarbonyl)-L-ornithyl-L-tryptophyl-L-glutaminyl-L-norvalyl-L-tyrosyl-cyclic (2→8)-disulfide-cyclic 3^3,12^5-(1H-1,2,3-triazole-4,1-diyl)] (H-GC[Pra]TDPRC[Cit]WQ[Orn(N3)]Y[dY]-OH; disulfide 2-8; triazole 3-12)	59	≤ 10		
C[C@@H](O)[C@@H]1NC(=O)[C@@H]2Cc3cn(nn3)CCC[C@@H](C(=O)N[C@@H](Cc3ccc(O)cc3)C(=O)N(C)[C@@H](Cc3ccc(O)cc3)C(=O)O)NC(=O)[C@H](CCC(N)=O)NC(=O)[C@H](Cc3c[nH]c4ccccc34)NC(=O)[C@H](CCCNC(N)=O)NC(=O)[C@H](CSSC[C@H](NC(=O)CN)C(=O)N2)NC(=O)[C@H](CCCNC(=N)N)NC(=O)[C@@H]2CCCN2C(=O)[C@H](CC(=O)O)NC1=O [Ip, L-tyrosine, glycyl-L-cysteinyl-L-alanyl-L-threonyl-L-α-aspartyl-L-prolyl-L-arginyl-L-cysteinyl-N5-(aminocarbonyl)-L-ornithyl-L-tryptophyl-L-glutaminyl-L-norvalyl-L-tyrosyl-N-methyl-cyclic (2→8)-disulfide-cyclic 3^3,12^5-(1H-1,2,3-triazole-4,1-diyl)] (H-GC[Pra]TDPRC[Cit]WQ[Orn(N3)]Y[NMeY]-OH; disulfide 2-8; triazole 3-12)	26 ± 1.4	≤ 10		
C[C@@H](O)[C@@H]1NC(=O)[C@@H]2Cc3cn(nn3)CCC[C@@H](C(=O)O)NC(=O)[C@H](CCC(N)=O)NC(=O)[C@H](Cc3c[nH]c4ccccc34)NC(=O)[C@H](CCCNC(N)=O)NC(=O)[C@H](CSSC[C@H](NC(=O)CN)C(=O)N2)NC(=O)[C@H](CCCNC(=N)N)NC(=O)[C@@H]2CCCN2C(=O)[C@H](CC(=O)O)NC1=O [Iq, L-norvaline, glycyl-L-cysteinyl-L-alanyl-L-threonyl-L-α-aspartyl-L-prolyl-L-arginyl-L-cysteinyl-N5-(aminocarbonyl)-L-ornithyl-L-tryptophyl-L-glutaminyl-cyclic (2→8)-disulfide-cyclic 3^3,12^5-(1H-1,2,3-triazole-4,1-diyl)] (H-GC[Pra]TDPRC[Cit]WQ[Orn(N3)]-OH; disulfide 2-8; triazole 3-12)	> 300	69 ± 2	greater than 100 fold	approximately 10 fold
C[C@@H](O)[C@@H]1NC(=O)[C@@H]2Cc3cn(nn3)CCC[C@@H](C(=O)N(C)[C@@H](Cc3ccc(O)cc3)C(=O)O)NC(=O)[C@H](CCC(N)=O)NC(=O)[C@H](Cc3c[nH]c4ccccc34)NC(=O)[C@H](CCCNC(N)=O)NC(=O)[C@H](CSSC[C@H](NC(=O)CN)C(=O)N2)NC(=O)[C@H](CCCNC(=N)N)NC(=O)[C@@H]2CCCN2C(=O)[C@H](CC(=O)O)NC1=O [Ir, L-tyrosine, glycyl-L-cysteinyl-L-alanyl-L-threonyl-L-α-aspartyl-L-prolyl-L-arginyl-L-cysteinyl-N5-(aminocarbonyl)-L-ornithyl-L-tryptophyl-L-glutaminyl-L-norvalyl-N-methyl-cyclic (2→8)-disulfide-cyclic 3^3,12^5-(1H-1,2,3-triazole-4,1-diyl)] (H-GC[Pra]TDPRC[Cit]WQ[Orn(N3)][NMeY]-OH; disulfide 2-8; triazole 3-12)	~100	31 ± 0.7		
C[C@@H](O)[C@@H]1NC(=O)[C@@H]2Cc3cn(nn3)CCC[C@@H](C(=O)N[C@H](CC(=O)O)c3ccc(O)cc3)NC(=O)[C@H](CCC(N)=O)NC(=O)[C@H](Cc3c[nH]c4ccccc34)NC(=O)[C@H](CCCNC(N)=O)NC(=O)[C@H](CSSC[C@H](NC(=O)CN)C(=O)N2)NC(=O)[C@H](CCCNC(=N)N)NC(=O)[C@@H]2CCCN2C(=O)[C@H](CC(=O)O)NC1=O [Iu, (R)-3-(amino)-3-(4-hydroxyphenyl)propionic acid, glycyl-L-cysteinyl-L-alanyl-L-threonyl-L-α-aspartyl-L-prolyl-L-arginyl-L-cysteinyl-N5-(aminocarbonyl)-L-ornithyl-L-tryptophyl-L-glutaminyl-L-norvalyl-cyclic (2→8)-disulfide-cyclic 3^3,12^5-(1H-1,2,3-triazole-4,1-diyl)] (H-GC[Pra]TDPRC[Cit]WQ[Orn(N3)]-X1; disulfide 2-8; triazole 3-12)	~100	< 30		
